Data from the supplement of paper PMC12463676, “Small-molecule dissolution of stress granules by redox modulation benefits ALS models” (Nature Chemical Biology, 2025).

Columns and labels:
lipoamide = compound: NC(=O)CCCCC1CCSS1 [lipoamide]; test: thermal stability z-score vs DMSO; higher = more thermally stabilized by treatment; conditions: HeLa, lipoamide concentration 100 µM
Protocol: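 Cellular thermal proteome profiling in HeLa cells. Cells were treated with 100 µM lipoamide for 1 h, with or without 1 mM arsenate for a further 1 h, then heated to ten temperatures (37-66.3 °C), and soluble protein was quantified by TMT mass spectrometry relative to 0.1% DMSO controls. The thermal stability score (sum of log2 fold changes minus the abundance score) was transformed to a z-score; mean of n = 3 experiments.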

potassium arsenate = compound: O=[As]([O-])(O)O.[K+] [potassium arsenate]; test: as above; conditions: HeLa; arsenate concentration 1 mM
Protocol: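 Cellular thermal proteome profiling in HeLa cells treated with 1 mM arsenate for 1 h (DMSO pretreatment), heated to ten temperatures (37-66.3 °C). Soluble protein was quantified by TMT mass spectrometry relative to DMSO controls; the thermal stability score was transformed to a z-score; mean of n = 3 experiments.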

[1] = arsenate co-treatment: 1 mM arsenate 1 h
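Further: each temperature applied for 3 min, abundance score taken as mean log2 fold change at the two lowest temperatures, z-score obtained by mean subtraction and division by SD.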

Chain of UniProt Q15907 (Q15907 whole entry): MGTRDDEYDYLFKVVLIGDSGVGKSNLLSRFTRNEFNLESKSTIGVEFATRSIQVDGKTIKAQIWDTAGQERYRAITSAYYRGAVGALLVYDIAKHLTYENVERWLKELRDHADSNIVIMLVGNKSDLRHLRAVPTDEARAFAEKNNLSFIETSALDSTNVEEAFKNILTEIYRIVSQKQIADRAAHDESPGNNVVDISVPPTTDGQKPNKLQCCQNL
Chain of UniProt P08572 (P08572 whole entry): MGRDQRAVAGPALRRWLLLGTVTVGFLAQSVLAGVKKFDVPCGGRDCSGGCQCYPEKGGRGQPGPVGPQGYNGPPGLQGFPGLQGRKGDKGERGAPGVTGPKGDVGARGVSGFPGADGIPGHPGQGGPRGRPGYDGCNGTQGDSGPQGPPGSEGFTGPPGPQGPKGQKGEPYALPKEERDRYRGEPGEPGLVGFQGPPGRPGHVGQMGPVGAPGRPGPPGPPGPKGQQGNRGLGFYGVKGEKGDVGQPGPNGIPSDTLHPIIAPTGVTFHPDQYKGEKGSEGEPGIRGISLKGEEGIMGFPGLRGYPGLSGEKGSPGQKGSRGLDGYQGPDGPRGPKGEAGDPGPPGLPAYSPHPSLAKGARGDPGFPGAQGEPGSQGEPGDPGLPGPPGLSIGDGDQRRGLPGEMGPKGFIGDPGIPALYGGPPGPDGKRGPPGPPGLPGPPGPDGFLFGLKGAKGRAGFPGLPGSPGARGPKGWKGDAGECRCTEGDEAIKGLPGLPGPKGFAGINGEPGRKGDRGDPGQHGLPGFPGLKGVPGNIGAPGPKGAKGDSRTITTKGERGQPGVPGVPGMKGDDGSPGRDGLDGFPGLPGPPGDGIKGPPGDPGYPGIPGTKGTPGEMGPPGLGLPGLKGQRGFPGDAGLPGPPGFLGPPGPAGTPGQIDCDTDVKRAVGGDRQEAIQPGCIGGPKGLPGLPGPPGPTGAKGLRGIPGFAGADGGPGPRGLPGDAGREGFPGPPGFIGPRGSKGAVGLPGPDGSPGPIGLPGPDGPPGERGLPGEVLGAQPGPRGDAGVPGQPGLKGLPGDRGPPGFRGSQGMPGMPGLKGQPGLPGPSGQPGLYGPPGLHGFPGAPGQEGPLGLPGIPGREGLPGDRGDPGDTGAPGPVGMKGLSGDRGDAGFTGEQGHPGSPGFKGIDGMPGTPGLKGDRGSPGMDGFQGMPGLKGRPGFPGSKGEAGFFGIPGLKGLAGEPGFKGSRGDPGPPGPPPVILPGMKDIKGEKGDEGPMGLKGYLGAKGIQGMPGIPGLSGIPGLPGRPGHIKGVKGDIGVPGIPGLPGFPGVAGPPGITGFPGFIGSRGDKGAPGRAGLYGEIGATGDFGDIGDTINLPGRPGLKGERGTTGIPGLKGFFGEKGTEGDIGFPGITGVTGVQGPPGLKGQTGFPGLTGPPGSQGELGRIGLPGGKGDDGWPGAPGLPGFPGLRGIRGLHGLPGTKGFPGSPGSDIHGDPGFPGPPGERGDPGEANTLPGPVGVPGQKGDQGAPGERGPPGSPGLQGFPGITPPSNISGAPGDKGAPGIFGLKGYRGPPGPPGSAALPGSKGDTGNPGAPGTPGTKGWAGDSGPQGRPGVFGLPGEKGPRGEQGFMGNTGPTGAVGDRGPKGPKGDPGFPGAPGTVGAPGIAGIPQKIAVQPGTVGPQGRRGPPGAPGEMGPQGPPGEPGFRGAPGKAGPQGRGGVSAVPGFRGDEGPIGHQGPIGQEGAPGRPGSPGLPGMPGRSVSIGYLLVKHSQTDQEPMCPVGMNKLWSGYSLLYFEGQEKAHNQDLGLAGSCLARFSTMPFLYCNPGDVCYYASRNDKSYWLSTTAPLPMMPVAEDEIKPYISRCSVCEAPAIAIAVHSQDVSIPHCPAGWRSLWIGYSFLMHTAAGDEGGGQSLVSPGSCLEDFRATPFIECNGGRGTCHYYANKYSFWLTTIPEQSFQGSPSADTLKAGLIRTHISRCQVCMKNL
Chain of UniProt Q9H4B0 (Q9H4B0 whole entry): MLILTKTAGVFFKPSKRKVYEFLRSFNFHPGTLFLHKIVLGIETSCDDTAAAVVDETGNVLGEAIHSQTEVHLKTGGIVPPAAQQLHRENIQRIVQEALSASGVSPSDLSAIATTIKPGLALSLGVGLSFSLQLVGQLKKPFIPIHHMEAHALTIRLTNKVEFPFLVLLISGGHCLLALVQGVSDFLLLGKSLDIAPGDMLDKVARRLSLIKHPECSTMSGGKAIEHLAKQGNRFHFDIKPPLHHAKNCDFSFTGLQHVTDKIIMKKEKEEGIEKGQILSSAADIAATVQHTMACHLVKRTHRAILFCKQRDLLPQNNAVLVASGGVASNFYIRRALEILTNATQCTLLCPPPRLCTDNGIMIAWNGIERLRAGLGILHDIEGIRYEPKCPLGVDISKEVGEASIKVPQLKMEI
Chain of UniProt Q9UHP3 (Q9UHP3 whole entry): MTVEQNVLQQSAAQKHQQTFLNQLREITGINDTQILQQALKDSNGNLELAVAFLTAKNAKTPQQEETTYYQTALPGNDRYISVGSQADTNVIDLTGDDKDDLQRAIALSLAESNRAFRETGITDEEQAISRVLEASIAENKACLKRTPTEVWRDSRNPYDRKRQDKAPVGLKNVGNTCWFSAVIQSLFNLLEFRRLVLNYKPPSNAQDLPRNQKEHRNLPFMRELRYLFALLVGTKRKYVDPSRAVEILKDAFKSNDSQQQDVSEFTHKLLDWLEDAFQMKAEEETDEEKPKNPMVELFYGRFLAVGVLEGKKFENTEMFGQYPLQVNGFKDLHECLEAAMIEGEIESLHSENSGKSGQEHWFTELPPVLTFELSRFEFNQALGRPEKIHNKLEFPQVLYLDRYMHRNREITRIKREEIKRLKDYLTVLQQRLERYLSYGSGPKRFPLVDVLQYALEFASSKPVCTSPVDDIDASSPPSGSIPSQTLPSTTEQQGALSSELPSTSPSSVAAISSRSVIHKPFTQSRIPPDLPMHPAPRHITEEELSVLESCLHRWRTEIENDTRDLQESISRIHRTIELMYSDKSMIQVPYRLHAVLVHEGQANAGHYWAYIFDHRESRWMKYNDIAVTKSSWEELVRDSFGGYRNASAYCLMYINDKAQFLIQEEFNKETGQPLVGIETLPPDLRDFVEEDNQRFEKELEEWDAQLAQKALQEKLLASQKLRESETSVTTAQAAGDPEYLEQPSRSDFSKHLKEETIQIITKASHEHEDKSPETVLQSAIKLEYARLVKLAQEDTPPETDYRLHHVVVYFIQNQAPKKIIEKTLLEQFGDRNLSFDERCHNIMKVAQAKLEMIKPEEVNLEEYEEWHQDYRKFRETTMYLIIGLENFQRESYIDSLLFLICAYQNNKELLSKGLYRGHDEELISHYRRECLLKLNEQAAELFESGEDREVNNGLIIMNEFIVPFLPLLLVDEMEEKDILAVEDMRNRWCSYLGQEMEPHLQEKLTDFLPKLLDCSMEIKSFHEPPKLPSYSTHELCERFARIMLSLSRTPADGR
Chain of UniProt Q8TB61 (Q8TB61 whole entry): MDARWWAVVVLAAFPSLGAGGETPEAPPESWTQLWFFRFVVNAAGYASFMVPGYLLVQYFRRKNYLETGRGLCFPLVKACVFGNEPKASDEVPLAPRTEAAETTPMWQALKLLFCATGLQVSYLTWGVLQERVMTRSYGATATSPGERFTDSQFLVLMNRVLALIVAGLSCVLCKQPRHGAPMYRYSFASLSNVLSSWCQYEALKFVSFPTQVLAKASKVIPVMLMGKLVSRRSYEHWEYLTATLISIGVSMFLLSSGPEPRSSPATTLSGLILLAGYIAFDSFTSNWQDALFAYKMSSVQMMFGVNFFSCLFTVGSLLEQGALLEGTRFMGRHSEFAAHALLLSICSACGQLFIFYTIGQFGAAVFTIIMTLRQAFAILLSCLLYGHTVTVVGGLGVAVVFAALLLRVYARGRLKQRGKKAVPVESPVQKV
Chain of UniProt Q12983 (Q12983 whole entry): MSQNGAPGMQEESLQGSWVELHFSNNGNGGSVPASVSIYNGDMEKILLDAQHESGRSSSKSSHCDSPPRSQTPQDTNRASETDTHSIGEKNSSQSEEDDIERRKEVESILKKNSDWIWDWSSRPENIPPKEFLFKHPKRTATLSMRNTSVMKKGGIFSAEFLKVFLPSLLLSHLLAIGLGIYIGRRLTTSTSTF
Chain of UniProt Q9Y5B0 (Q9Y5B0 whole entry): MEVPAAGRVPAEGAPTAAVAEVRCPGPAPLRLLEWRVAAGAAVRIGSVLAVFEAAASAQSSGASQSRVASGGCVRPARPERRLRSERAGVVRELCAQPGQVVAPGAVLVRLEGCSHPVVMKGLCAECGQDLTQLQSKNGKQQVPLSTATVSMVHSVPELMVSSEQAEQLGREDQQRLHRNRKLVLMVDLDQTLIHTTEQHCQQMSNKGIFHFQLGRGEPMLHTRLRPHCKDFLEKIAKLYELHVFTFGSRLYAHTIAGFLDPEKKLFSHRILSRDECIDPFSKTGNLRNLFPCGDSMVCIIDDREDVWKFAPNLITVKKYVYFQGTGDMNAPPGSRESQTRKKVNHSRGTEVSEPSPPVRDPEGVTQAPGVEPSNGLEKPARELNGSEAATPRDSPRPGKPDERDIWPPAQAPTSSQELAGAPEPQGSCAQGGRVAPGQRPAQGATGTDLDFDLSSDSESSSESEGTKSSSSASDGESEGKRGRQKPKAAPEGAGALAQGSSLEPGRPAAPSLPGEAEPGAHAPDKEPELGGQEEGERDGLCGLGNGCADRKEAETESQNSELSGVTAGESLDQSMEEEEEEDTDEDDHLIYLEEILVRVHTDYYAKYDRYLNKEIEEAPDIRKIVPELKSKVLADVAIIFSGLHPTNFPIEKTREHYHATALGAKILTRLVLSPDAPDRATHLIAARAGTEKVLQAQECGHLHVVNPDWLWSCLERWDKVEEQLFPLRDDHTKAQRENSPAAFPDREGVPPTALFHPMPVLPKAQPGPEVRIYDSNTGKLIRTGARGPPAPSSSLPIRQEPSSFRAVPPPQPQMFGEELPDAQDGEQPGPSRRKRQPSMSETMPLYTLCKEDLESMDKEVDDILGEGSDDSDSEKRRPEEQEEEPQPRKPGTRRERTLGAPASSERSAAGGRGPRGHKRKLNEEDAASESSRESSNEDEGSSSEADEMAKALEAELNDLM

Target | thermal stability z-score (lipoamide; [1]) | thermal stability z-score (lipoamide; arsenate co-treatment: none) | thermal stability z-score (potassium arsenate)
CTBP2 (UniProt P56545) | 0.985 | -0.0596 | 0.448
GPATCH8 (UniProt Q9UKJ3) | 1.48 | 0.761 | -0.238
CRNKL1 (UniProt Q9BZJ0) | 0.288 | 0.156 | -0.00401
USP13 (UniProt Q92995) | 0.464 | 0.0604 | -0.0408
CUL1 (UniProt Q13616) | 0.708 | 0.275 | -0.108
UHRF1 (UniProt Q96T88) | 0.0776 | 0.0619 | -0.766
SLC35B2 (UniProt Q8TB61) | -0.113 | -0.134 | 0.579
SRPRB (UniProt Q9Y5M8) | -0.411 | 0.511 | 1.49
ZC2HC1A (UniProt Q96GY0) | 0.178 | -0.306 | -1.15
RPRD1B (UniProt Q9NQG5) | 0.793 | 0.977 | 0.808
ABHD14B (UniProt Q96IU4) | 1.24 | 0.828 | 0.527
USP25 (UniProt Q9UHP3) | -0.18 | -0.113 | 0.667
OSGEPL1 (UniProt Q9H4B0) | 0.0734 | -0.263 | -0.494
SEC61A1 (UniProt P61619) | 1.11 | 0.235 | 0.55
SSR1 (UniProt P43307) | -1.49 | -0.782 | -1.26
TPRKB (UniProt Q9Y3C4) | -0.134 | -0.764 | -0.881
RAB12 (UniProt Q6IQ22) | 1.06 | 1.06 | 0.678
RAB11B (UniProt Q15907) | -0.384 | -1.01 | -0.384
PPP1R37 (UniProt O75864) | -0.153 | -0.186 | -0.0199
TLN1 (UniProt Q9Y490) | 0.266 | 0.266 | -0.682
MBD3 (UniProt O95983) | 0.379 | 0.252 | -0.483
PPAN (UniProt Q9NQ55) | 0.703 | -0.582 | -0.33
GEMIN2 (UniProt O14893) | -0.139 | -0.0485 | -0.345
RTFDC1 (UniProt Q9BY42) | -1.39 | -0.367 | -1.48
ATG7 (UniProt O95352) | -0.324 | 0.291 | 0.16
TBC1D9B (UniProt Q66K14) | -0.357 | -0.158 | -0.401
MSH3 (UniProt P20585) | -0.0133 | 0.43 | -0.95
SMARCD2 (UniProt Q92925) | 0.132 | 0.101 | -0.0687

Target | thermal stability z-score (lipoamide; [1]) | thermal stability z-score (lipoamide; arsenate co-treatment: none) | thermal stability z-score (potassium arsenate)
TTF2 (UniProt Q9UNY4) | -1.12 | 0.461 | -0.0154
UniProt F5GYJ5 | 0.464 | 0.437 | 0.166
B3GAT3 (UniProt O94766) | -0.54 | -0.00376 | 0.0971
CTDP1 (UniProt Q9Y5B0) | -0.373 | -0.652 | -0.903
ARF4 (UniProt P18085) | -0.409 | -0.09 | -0.609
NAP1L4 (UniProt Q99733) | -0.0111 | 0.113 | -0.384
PNPLA4 (UniProt P41247) | 0.634 | 0.101 | 1.28
C12ORF45 (UniProt Q8N5I9) | 0.42 | 0.511 | 0.591
UniProt E7ENQ6 | -0.462 | -0.272 | 0.151
COMT (UniProt P21964) | 0.121 | 0.102 | -0.525
DNAJC13 (UniProt O75165) | -0.118 | -0.226 | 0.201
RPP38 (UniProt P78345) | -0.128 | 0.146 | -0.347
SMC1A (UniProt Q14683) | 0.323 | 0.28 | -0.186
COL4A2 (UniProt P08572) | -1.15 | -0.802 | 0.138
BNIP3 (UniProt Q12983) | 0.679 | 0.193 | 2.44
RRP15 (UniProt Q9Y3B9) | -0.279 | -0.438 | -0.817
NENF (UniProt Q9UMX5) | 0.318 | -0.406 | -0.0969
SMG8 (UniProt Q8ND04) | -1.73 | -0.705 | 0.575
TNS3 (UniProt Q68CZ2) | 0.341 | 0.204 | 1.32
DYNC1I2 (UniProt Q13409) | 0.0629 | 0.266 | -0.19
CEP152 (UniProt O94986) | -0.185 | -0.184 | 0.269
TBL3 (UniProt Q12788) | 0.0946 | -0.105 | -0.338
ATRAID (UniProt Q6UW56) | -2.95 | -2.55 | 0.451
NOC4L (UniProt Q9BVI4) | 0.134 | 0.00403 | 0.214
ETNK1 (UniProt Q9HBU6) | 0.392 | 1.06 | 0.244
ACADS (UniProt P16219) | 0.116 | -1.16 | -2.93
FAM83G (UniProt A6ND36) | -0.123 | 0.00979 | 0.138
